Source: patent US20090030086A1, “ANTIMICROBIAL AGENTS” (priority 2005, published 2009)
≈ marks a conversion by molar mass, not a printed value. Where two headings read alike, the source gives them in different places.

Columns and labels:
S. aureus ATCC 29213 [1] = assay: MIC assay; assay type: cell-based, Staphylococcus aureus
Protocol: 1. Staphylococcus aureus—the principal staphylococcal test micro-organism used in these studies was Staphylococcus aureus ATCC 29213. This strain is the one recommended for QC/QA purposes in Minimum Inhibitory Concentration (MIC) assays by the US Clinical and Laboratory Standards Institute (formerly the NCCLS), an FDA-recognised body.
(§1) The staphylococci and enterococci were cultured and maintained on Mueller-Hinton Medium (agar and broth) at pH 7.2; they were incubated aerobically at 37° C. for 24 hours.
(§2) This is a standard international method for quantitatively assessing the antimicrobial activity of a compound in a liquid medium. The method used a 96-well microtitre plate, capable of holding about 200 μl of liquid per well. […] The culture media were as described above for the relevant test organisms.
(§3) The wells were inoculated with a liquid suspension of freshly grown micro-organism and incubated under the conditions described above. After incubation, the microtitre plate was examined visually (with the aid of a light box) for cloudiness in each well, which would indicate microbial growth. The MIC value was recorded as the lowest concentration of test compound required to inhibit microbial growth, i.e., the lowest concentration for which the liquid in the well remained clear.
(§4) The assays were conducted in duplicate and included both negative (culture medium only) and positive (culture medium, diluting solvent and inoculum) controls.
(§5) The following experiments all used S. aureus ATCC 29213 as the test organism. MIC, MBC and DDA assays, as described above, were carried out using a range of different benzoquinones and hydroquinones. Supplemented DDA assays, in the presence of salt, lipid and blood, were also conducted.

S. aureus ATCC 29213 [2] = assay: MBC assay; assay type: cell-based, Staphylococcus aureus
Protocol: as §1
(§6) This assay, normally carried out after an MIC assay, determines the minimum concentration of a compound that is lethal to the micro-organism being tested.
(§7) These samples were then individually sub-cultured on non-selective agar medium, under the incubation conditions described above. Following incubation they were examined visually for bacterial growth.
as §5

S. aureus ATCC 29213 [3] = assay: Disc diffusion assay (DDA); assay type: cell-based, Staphylococcus aureus; conditions: for zone of inhibition at 200 µg/disc: Staphylococcus aureus
Protocol: as §1
(§8) A sterile paper disc was impregnated with a sample of the test compound and a minimum of 30 minutes allowed for the solvents to evaporate as far as possible. The disc was then placed on an agar plate onto which the test micro-organism had been inoculated. The plate was then incubated under the conditions described above, following which it was examined visually for signs of bacterial growth. […] The diameter of this zone of “inhibition” was measured using a ProtoCOL™ automated zone sizer (Synbiosis, Cambridge, UK).
(§9) The area of the zone of inhibition was calculated from the measured zone diameter (D) using the formula π(D/2)^2.
(§10) For most DDA assays, 200 μg of each compound was loaded onto each disc.

S. aureus ATCC 29213 [4] = assay: Supplemented disc diffusion assay; assay type: cell-based, Staphylococcus aureus; conditions: for zone of inhibition at 200 µg/disc: Staphylococcus aureus, ATCC29213, 24 h
Protocol: as §1, §8
(§11) Performance under these conditions can provide a more reliable indication of activity on topical application. For assays conducted using S. aureus strains, the supplements were defibrinated horse blood (5% v/v), lipid (Tween™ 80 at 1% v/v) and sodium chloride (100 mM). For those using Propionibacterium spp. strains, the supplements were lipid (Tween™ 80 at 1% v/v) and sodium chloride (100 mM).
as §5, §10

P. acnes NCTC 737 [5] = assay: MIC assay; assay type: cell-based, Propionibacterium acnes
Protocol: 2. Propionibacterium spp.—the principal propionibacterial strain used in these studies was Propionibacterium acnes NCTC 737.
(§12) The Propionibacterium spp organisms were cultured and maintained on Wilkins-Chalgren Anaerobe Medium (agar and broth) at pH 6.0; cultures were incubated anaerobically at 37° C. for 72 hours.
as §2, §3, §4
(§13) MIC, MBC and DDA assays, as described above, were carried out using a range of different benzoquinones and hydroquinones. Supplemented DDA assays, in the presence of salt and lipid, were also conducted.

P. acnes NCTC 737 [6] = assay: MBC assay; assay type: cell-based, Propionibacterium acnes
Protocol: as §12, §6, §7, §13

P. acnes NCTC 737 [7] = assay: Disc diffusion assay (DDA); assay type: cell-based, Propionibacterium acnes; conditions: for zone of inhibition at 200 µg/disc: Cutibacterium acnes
Protocol: as §12, §8, §9, §10

P. acnes NCTC 737 [8] = assay: Supplemented disc diffusion assay; assay type: cell-based, Propionibacterium acnes; conditions: for zone of inhibition at 200 µg/disc: Cutibacterium acnes, NCTC737, 72 h
Protocol: as §12, §8, §11, §13, §10

[9] = Staphylococcus aureus, ATCC29213, S. aureus ATCC 29213, Mueller-Hinton broth pH 7.2, aerobic, 37° C., 24 hours, read-out: MIC
[10] = Staphylococcus aureus, ATCC29213, read-out: MBC
[11] = ATCC29213, S. aureus ATCC 29213, unsupplemented agar, 200 μg per disc (thymoquinone 50 μg, 2,6-dimethoxy-p-benzoquinone 100 μg), read-out: DDA (diameter of zone of inhibition)
[12] = S. aureus ATCC 29213, Tween 80 at 1% v/v, 200 μg per disc (thymoquinone 50 μg, 2,6-dimethoxy-p-benzoquinone 100 μg), read-out: DDA + lipid
[13] = S. aureus ATCC 29213, defibrinated horse blood 5% v/v, 200 μg per disc (thymoquinone 50 μg, 2,6-dimethoxy-p-benzoquinone 100 μg), read-out: DDA + blood
[14] = S. aureus ATCC 29213, sodium chloride 100 mM, 200 μg per disc (thymoquinone 50 μg, 2,6-dimethoxy-p-benzoquinone 100 μg), read-out: DDA + salt
[15] = Cutibacterium acnes, NCTC737, P. acnes NCTC 737, Wilkins-Chalgren broth pH 6.0, anaerobic, 37° C., 72 hours, read-out: MIC
[16] = Cutibacterium acnes, NCTC737, P. acnes NCTC 737, read-out: MBC
[17] = NCTC737, P. acnes NCTC 737, unsupplemented agar, 200 μg per disc (2,6-dimethoxy-p-benzoquinone 100 μg), read-out: DDA (diameter of zone of inhibition)
[18] = P. acnes NCTC 737, Tween 80 at 1% v/v, 200 μg per disc (2,6-dimethoxy-p-benzoquinone 100 μg), read-out: DDA + lipid
[19] = P. acnes NCTC 737, sodium chloride 100 mM, 200 μg per disc (2,6-dimethoxy-p-benzoquinone 100 μg), read-out: DDA + salt

Row | SMILES | MIC/MBC ratio (S. aureus ATCC 29213 [2]) | MIC/MBC ratio (P. acnes NCTC 737 [6]; P. acnes NCTC 737) | MIC (S. aureus ATCC 29213 [1]; [9]) | MIC (P. acnes NCTC 737 [5]; [15]) | MBC (S. aureus ATCC 29213 [2]; [10]) | zone of inhibition at 200 µg/disc (S. aureus ATCC 29213 [3]; [11]) | zone of inhibition at 200 µg/disc (S. aureus ATCC 29213 [4]; [12]) | zone of inhibition at 200 µg/disc (S. aureus ATCC 29213 [4]; [13]) | zone of inhibition at 200 µg/disc (S. aureus ATCC 29213 [4]; [14]) | MBC (P. acnes NCTC 737 [6]; [16]) | zone of inhibition at 200 µg/disc (P. acnes NCTC 737 [7]; [17]) | zone of inhibition at 200 µg/disc (P. acnes NCTC 737 [8]; [18]) | zone of inhibition at 200 µg/disc (P. acnes NCTC 737 [8]; [19]) | also measured
1 | Oc1cc(Cl)c(O)cc1Cl [2,5-dichloro-p-hydroquinone] | 1 | 1 |  |  |  |  |  |  |  |  |  |  |  | MIC (S. aureus ATCC 29213 [1]; S. aureus ATCC 29213, Mueller-Hinton broth pH 7.2, aerobic, 37° C., 24 hours): 15.6 µg/mL (≈ 87.1 µM); MBC (S. aureus ATCC 29213 [2]): 15.6 µg/mL (≈ 87.1 µM); DDA (diameter of zone of inhibition) (S. aureus ATCC 29213 [3]; S. aureus ATCC 29213, unsupplemented agar, 200 μg per disc (thymoquinone 50 μg, 2,6-dimethoxy-p-benzoquinone 100 μg)): 19.90 mm; DDA + lipid (S. aureus ATCC 29213 [4]; S. aureus ATCC 29213, Tween 80 at 1% v/v, 200 μg per disc (thymoquinone 50 μg, 2,6-dimethoxy-p-benzoquinone 100 μg)): 15.63 mm; DDA + blood (S. aureus ATCC 29213 [4]; S. aureus ATCC 29213, defibrinated horse blood 5% v/v, 200 μg per disc (thymoquinone 50 μg, 2,6-dimethoxy-p-benzoquinone 100 μg)): 13.44 mm; DDA + salt (S. aureus ATCC 29213 [4]; S. aureus ATCC 29213, sodium chloride 100 mM, 200 μg per disc (thymoquinone 50 μg, 2,6-dimethoxy-p-benzoquinone 100 μg)): 18.75 mm; MIC (P. acnes NCTC 737 [5]; P. acnes NCTC 737, Wilkins-Chalgren broth pH 6.0, anaerobic, 37° C., 72 hours): 62.5 µg/mL (≈ 349 µM); MBC (P. acnes NCTC 737 [6]; P. acnes NCTC 737): 62.5 µg/mL (≈ 349 µM); DDA (diameter of zone of inhibition) (P. acnes NCTC 737 [7]; P. acnes NCTC 737, unsupplemented agar, 200 μg per disc (2,6-dimethoxy-p-benzoquinone 100 μg)): 13.46 mm; DDA + lipid (P. acnes NCTC 737 [8]; P. acnes NCTC 737, Tween 80 at 1% v/v, 200 μg per disc (2,6-dimethoxy-p-benzoquinone 100 μg)): 0.0 mm; DDA + salt (P. acnes NCTC 737 [8]; P. acnes NCTC 737, sodium chloride 100 mM, 200 μg per disc (2,6-dimethoxy-p-benzoquinone 100 μg)): 18.64 mm
2 | CC1=CC(=O)C(Cl)=CC1=O [2-chloro-5-methyl-p-benzoquinone] | 1 | 1 | 15.6 µg/mL (≈ 99.6 µM) | 15.6 µg/mL (≈ 99.6 µM) | 15.6 µg/mL (≈ 99.6 µM) | 34.5 mm | 33.9 mm | 17.7 mm | 34.2 mm | 15.6 µg/mL (≈ 99.6 µM) | 38.9 mm | 38.8 mm | 37.2 mm | 
3 | Cc1cc(O)c(C)c(O)c1 [2,5-dimethylresorcinol] | <0.06 | 0.125 |  |  |  |  |  |  |  |  |  |  |  | MIC (S. aureus ATCC 29213 [1]; Staphylococcus aureus, ATCC29213, 24 h, pH 7.2): 15.6 µg/mL (≈ 113 µM); MBC (S. aureus ATCC 29213 [2]; Staphylococcus aureus, ATCC29213): > 250 µg/mL; zone of inhibition at 200 µg/disc (S. aureus ATCC 29213 [3]; ATCC29213, read-out: DDA (diameter of zone of inhibition)): 16.7 mm; zone of inhibition at 200 µg/disc (S. aureus ATCC 29213 [4]; read-out: DDA + blood): 0 mm; zone of inhibition at 200 µg/disc (S. aureus ATCC 29213 [4]; read-out: DDA + lipid): 13.8 mm; zone of inhibition at 200 µg/disc (S. aureus ATCC 29213 [4]; read-out: DDA + salt): 16.9 mm; MIC (P. acnes NCTC 737 [5]; Cutibacterium acnes, NCTC737, 72 h, pH 6): 3.9 µg/mL (≈ 28.2 µM); MBC (P. acnes NCTC 737 [6]; Cutibacterium acnes, NCTC737): 31.2 µg/mL (≈ 226 µM); zone of inhibition at 200 µg/disc (P. acnes NCTC 737 [7]; NCTC737, read-out: DDA (diameter of zone of inhibition)): 0 mm; zone of inhibition at 200 µg/disc (P. acnes NCTC 737 [8]; read-out: DDA + lipid): 0 mm; zone of inhibition at 200 µg/disc (P. acnes NCTC 737 [8]; read-out: DDA + salt): 0 mm

The next lines start with results.

Row | MIC/MBC ratio (S. aureus ATCC 29213 [2]) | MIC/MBC ratio (P. acnes NCTC 737 [6]; P. acnes NCTC 737) | MIC (S. aureus ATCC 29213 [1]; [9]) | MIC (P. acnes NCTC 737 [5]; [15]) | SMILES | MBC (S. aureus ATCC 29213 [2]; [10]) | zone of inhibition at 200 µg/disc (S. aureus ATCC 29213 [3]; [11]) | zone of inhibition at 200 µg/disc (S. aureus ATCC 29213 [4]; [12]) | zone of inhibition at 200 µg/disc (S. aureus ATCC 29213 [4]; [13]) | zone of inhibition at 200 µg/disc (S. aureus ATCC 29213 [4]; [14]) | MBC (P. acnes NCTC 737 [6]; [16]) | zone of inhibition at 200 µg/disc (P. acnes NCTC 737 [7]; [17]) | zone of inhibition at 200 µg/disc (P. acnes NCTC 737 [8]; [18]) | zone of inhibition at 200 µg/disc (P. acnes NCTC 737 [8]; [19]) | also measured
4 | <0.5 | <0.5 | 125 µg/mL (≈ 806 µM) | 125 µg/mL (≈ 806 µM) | O=[N+]([O-])c1c(O)cccc1O [2-nitroresorcinol] | > 250 µg/mL | 10.5 mm | 0 mm | 0 mm | 12.8 mm | > 250 µg/mL | 0 mm | 0 mm | 12.7 mm | 
5 | 0.5 | 1 | 7.8 µg/mL (≈ 46.9 µM) | 31.2 µg/mL (≈ 188 µM) | Cc1cc(O)c(C(C)C)cc1O [thymohydroquinone] | 15.6 µg/mL (≈ 93.9 µM) | 57.6 mm | 41.7 mm | 10.3 mm | 57.6 mm | 31.2 µg/mL (≈ 188 µM) | 9.82 mm | 0 mm | 9.61 mm | 
